This is an account of results in patent publication US20060270618A1, “Novel pharmaceutical composition of interferon gamma or pirfenidone with molecular diagnostics for the improved treatment of interstitial lung diseases” (priority 2001, published 2006).

The test system of assay [1] is individuals suffering from IPF. As to conditions: cited from earlier work.
Assay [2] concerns bleomycin-induced lung collagen fibrosis. The note with it: bleomycin mice; cited from earlier work.
Assay [3] concerns patient with histologically proven UIP. The assay is described as follows: Single patient with histologically proven UIP, CMV pretreatment then interferon gamma (FIG. 1). It counts as in vivo, human. The note with it: failure of immunosuppressive treatment, gene transcription analysis. From the text: FIG. 1: FIG. 1 depicts the total lung capacity (TLC), the partial pressure of arterial oxygen (PaO2), and the forced vital capacity (FVC) of a patient with histologically proven UIP (open lung biopsy) and failure of immunosuppressive treatment treated with interferon gamma. FIG. 1b) depicts the total lung capacity (TLC), the partial pressure of arterial oxygen (PaO2), and the forced vital capacity (FVC) of the same patient with histologically proven UIP (open lung biopsy) and failure of immunosuppressive treatment between time #l and time #2.

The next assay has as its system TGF-β1. The note with it: after six months of therapy; cited from earlier work.
A further assay concerns CTGF. The note with it: after six months of therapy; cited from earlier work.
The subject of assay [4] is patients suffering from severe interstitial lung disease (ILD). Briefly: Therapy of ILD/IPF patients: gene expression analysis followed by interferon gamma. The class given is in vivo, human. The source says: Biopsies were taken from patients suffering from severe interstitial lung disease (ILD), after […] was given, using the surgical method of bronchoscopy. Obtained tissue probes were stored and processed for isolation of total RNA in RNAlater™ (patent pending), an aqueous, non-toxic tissue storage reagent that stabilizes and protects cellular RNA in intact, unfrozen tissue samples.
Analysis of Infectious agents in biopsies. As patients with ILD repeatedly suffer from inflammations, biopsied material was tested for the presence of infectious agents. Most dominant was the observation of underlying Herpes virus infections (treated with Ganciclovir) and various bacterial infections (treated with various antibiotics), or few fungal infections.
Therapy. Therapy with interferon gamma was only started after successful pretreatment of the underlying infections and the assessment of the gene expression of the endogenous disease signiture genes.

The mark [5] stands for this setting: after pretreatment of infections and gene expression analysis.

For the substance “interferon gamma [naturally occurring glycoprotein cytokine, molecular weight about 17.000, also produced by recombinant techniques]”, the lung function result in assay [1] is on record as “improvement of lung function”. In addition, in assay [2], the amount of fibrosis entry is “reduction in the amount of fibrosis” and the “expression of TGF-β1” value was “reduced expression”. Further, the “clinical outcome of the patient” value in assay [3] is on record as “stabilization of the patient”. Besides, the “transcription of TGF-β1” value in the assay on TGF-β1 is “significantly diminished”. For the same substance, the “transcription of CTGF” value in the assay with CTGF is reported as “significantly diminished”. Further, in assay [4] (setting [5]), the physical exertion capacity entry is listed as “substantial increase” and the total lung capacity result is reported as “statistically highly significant increase”. Also, in assay [4] (at rest), the “partial pressure of arterial oxygen” value is recorded as “statistically significant increased”. The “effectiveness in the combination therapy” value in assay [4] (dose of 1.0-5.0 μg/kg body weight, 1-5 times per week, parenteral) is “effective”. The disease symptoms entry in assay [4] (human, in vivo) is given as “strong decrease”. In addition, the survival benefit entry in assay [4] (patients with IPF) is “significant survival benefit”.
